Source: patent US20180072675A1, “ANTIMICROBIAL PYRIDINOHYDRAZIDE AND HYDRAZOMETHYLPYRIDINE-BASED AGENTS” (Board of Supervisors of Louisiana State University and …, priority 2015, published 2018)
In brackets after ≈: the same amount, converted by molar mass. Read-outs that look alike come from different tables or passages of the source.

Experiments:
[1] = tested on: C. albicans clinical isolate 1 (TW1); experiment: MIC80 fungal growth inhibition, clinical isolate TW1; assay type: cell-based, Candida albicans; conditions: for MIC80: Candida albicans, read-out: MIC80 TW1
How it was run: (§1)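 Broth microdilution per CLSI M27-A3 in HEPES-buffered RPMI-1640, against C. albicans ATCC 10231, C. glabrata ATCC 48435 and azole-susceptible (TW1) and azole-resistant (TW17) clinical isolates from one AIDS patient. MIC80 read visually as lowest concentration inhibiting >80% growth versus 1% DMSO controls.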

Vero (kidney) cells = experiment: Mammalian cell toxicity, Promega CellTiter 96, kidney cells; assay type: cell-based; conditions: 24 h
Experimental: Cytotoxicity was determined using non-cancerous Vero cells (kidney-african green monkey) and liver cells (Hep-2G) in accordance with Promega CellTiter 96 Non-Radioactive Cell Proliferation Assay (cat # G4000). Compounds were diluted in media and all assays were done in triplicate. Average values are presented, with ±SD. Cells were incubated in the presence of the compounds for 24 h at 37° C. and 5% CO2. Tetrazolium dye solution was added to each well and allowed to incubate for 1-4 h. Solubilization/Stop solution was added and allowed to sit at room temperature for 1 h. Formazan product was scored spectrophotometrically with an automatic plate reader set at 570 nm. Positive control wells for cell death were briefly treated with 0.1% saponin, immediately prior to the addition of dye solution. Wells containing 1% DMSO and no drug were used as a negative control and the average absorbance at 570 nm were set to 100%. The percent of cells viable were calculated as a ratio between the average absorption at 570 nm of the drug containing wells/average absorption at 570 nm of the control (no drug). Ratios were multiplied by 100 to give the values as a percentage as expressed on the y-axis.
Cytotoxicity studies were performed in accordance with Promega CellTiter 96 Non-RadioactivCell Proliferation Assay (cat #G4000). All cytotoxicity studies used a negative control (wells of either kidney or liver cells containing 1% DMSO but lacking the analog), a positive control (wells of either kidney or liver cells treated with the known cytotoxic agent, saponin) and the serial dilutions of the novel analogs. All control (negative) wells were normalized to 100% viable cells to accurately show the percentage of either liver or kidney cells that remained alive and viable following either overnight incubation with the analogs or 5-minute treatment with 0.1% saponin.

[2] = tested on: Candida albicans ATCC Accession No. 10231; experiment: Checkerboard synergy assay with fluconazole; assay type: cell-based; conditions: for FIC Fluc: average FIC of fluconazole at varying concentrations of the test drug; for FIC Test: average FIC of the test drug at varying concentrations of fluconazole; for Activity (interaction with fluconazole): from FIC index; for FIC Index: sum of the two FICs, <1 synergistic, >=1 antagonistic
Experimental: Considering that two different modes of activity (cidal and static) were observed depending on the structural motifs present in our analogs, we performed a series of checkerboard assays to determine if representative active compounds were in fact acting in synergy with the azole, fluconazole. Each of these assays tested multiple concentrations of the selected analog in the presence of multiple concentrations of fluconazole. All checkerboard assays were prepared in 96-well plates. 200 μl of previously prepared drug solutions were added to each well in column 2. Using a multichannel pipette, 100 μl from each well in column 2 was serially diluted (1:2) horizontally across the plate, stopping at column 10. Contents of each well were mixed thoroughly. Column 11 was reserved for fluconazole MIC control and contained no other drug. 100 μl of media was added to each well, column 2-10. Each well was mixed thoroughly with a multichannel pipette. 100 μl was then removed and discarded from these wells. 100 μl of previously prepared fluconazole dilution was added to each well in row B. Using a multichannel pipette, 100 μl from each well was serially diluted (1:2) vertically down the plate, stopping at row F. Contents of each well were mixed thoroughly. Row G was reserved for tested drug MIC control and contained no fluconazole. Well G11 contained neither drug and served as a drug-free growth control. The final 100 μl from each well in row F was discarded.
The fungal samples were prepared from glycerol stocks of Candida albicans ATCC Accession No. 10231. The inoculum's concentration was adjusted to a McFarland standard between 0.08 and 0.12. Inoculum was then diluted at a ratio of 1:37.5 in buffered media. 100 μl of inoculum-media solution was added to each well. Following inoculation, the 96-well plates were wrapped in parafilm to prevent evaporation and incubated for overnight at 35° C. After 18 h, the wells showing growth were recorded.
Synergistic activity was determined based on the MIC read from these plates. The fractional inhibitory concentration (FIC) for a given well is the ratio of the minimum inhibitory concentration of one drug A in the presence another drug B to the minimum inhibitory concentration with only drug A. The FIC was calculated for the test drug in each of the wells along the growth/no-growth interface at varying concentrations of fluconazole, then these values were averaged to determine the average FIC for the test drug. The same process was used to calculate the average FIC for fluconazole at varying concentrations of the test drug. The sum of these two FICs gives the FIC index which can be used to determine the synergistic effect between the two drugs (Hsieh et al., Diagn. Microbiol. Infect. Dis. (1993) 16: 343-349). An FIC index value less than 1 indicated synergistic interactions between the two drugs while an FIC index value greater than or equal to 1 indicated antagonistic interactions.

[3] = tested on: Candida albicans (ATCC Accession No. 10231); experiment: MIC80 fungal growth inhibition, C. albicans ATCC 10231; assay type: cell-based; conditions: for MIC80: Candida albicans
How it was run: as §1

[4] = Azole-susceptible, >80% growth inhibition, visual scoring
[5] = ATCC10231, Azole-susceptible, >80% growth inhibition, visual scoring, read-out: MIC80 C. albicans ATCC No. 10231

| SMILES | MIC80 [1, 4] [µg/mL] | cell toxicity (Vero (kidney) cells; 100× MIC) | FIC Fluc [2] | FIC Test [2] | Activity (interaction with fluconazole) [2] | FIC Index [2] | MIC80 [3, 5] [µg/mL] | MIC80 TW1 [1, 4] [µg/mL] | cell toxicity (Vero (kidney) cells; 5 times the MIC) | MIC80 C. albicans ATCC No. 10231 [3, 4] [µg/mL] | cell toxicity (Vero (kidney) cells; through 10× MIC) | MIC80 [1] [µg/mL] | MIC80 ([3]; ATCC10231, read-out: MIC80 C. albicans ATCC No. 10231) [µg/mL] |
| --- | --- | --- | --- | --- | --- | --- | --- | --- | --- | --- | --- | --- | --- |
| Cc1ccc(O)c(/C=N/NC(=O)c2ccccn2)c1 [AR2, (E)-N′-(2-Hydroxy-5-methylbenzylidene)picolinohydrazide] | 4 (≈ 15.7 µM) | minimal toxicity | 1.00 | 1.00 | Antagonistic | 2.00 | 2 (≈ 7.83 µM) | – | – | – | – | – | – |
| O=C(NN=Cc1cc([N+](=O)[O-])ccc1O)c1cccnc1 [AR12] | – | – | 1.00 | 1.00 | Antagonistic | 2.00 | – | 8 (≈ 27.9 µM) | elevated toxicity | 4 (≈ 14 µM) | – | – | – |
| C(=N\Nc1ccccc1)/c1cccnc1 [AR44] | 16 (≈ 81.1 µM) | toxic | 1.00 | 0.90 | Antagonistic | 1.90 | 16 (≈ 81.1 µM) | – | – | – | no cell toxicity | – | – |
| O=C(NN=Cc1cc([N+](=O)[O-])ccc1O)c1ccncc1 [AR18] | – | minimal cytotoxicity | 1.00 | 1.00 | Antagonistic | 2.00 | – | 8 (≈ 27.9 µM) | – | 4 (≈ 14 µM) | not toxic | – | – |
| O=C(N/N=C/c1cc(Br)ccc1O)c1ccc[n+]([O-])c1 [AR27] | 8 (≈ 23.8 µM) | – | 0.92 | 1.00 | Antagonistic | 1.92 | 16 (≈ 47.6 µM) | – | cytotoxic | – | – | – | – |
| C(=N\Nc1ccccc1)/c1ccncc1 [AR48] | – | toxic | 3.87 | 0.80 | Antagonistic | 4.67 | – | – | – | – | no cell toxicity | 16 (≈ 81.1 µM) | 31 (≈ 157 µM) |
